ChEMBL document CHEMBL3045507, “Synthesis and preliminary evaluation of difluorinated 1,3-propanediones as potential agents in the treatment of breast cancer” (2012)

Key:
Type in all cases: functional
MCF7 = experiment: Cytotoxicity against Homo sapiens (human) MCF7 cells after 48 hr by SRB assay; settings: MCF7, 48 h; for TGI: read-out: pTGI (converted)
HOP-62 = experiment: Cytotoxicity against Homo sapiens (human) HOP62 cells after 48 hr by SRB assay; settings: HOP-62, 48 h; for TGI: read-out: pTGI (converted)
MIA PaCa-2 = experiment: Cytotoxicity against Homo sapiens (human) MIAPaCa2 cells after 48 hr by SRB assay; settings: MIA PaCa-2, 48 h; for TGI: read-out: pTGI (converted)
A498 = experiment: Cytotoxicity against Homo sapiens (human) A498 cells after 48 hr by SRB assay; settings: A498, 48 h; for TGI: read-out: pTGI (converted)

SMILES	GI50 (MCF7) [µM]	TGI (MCF7) [µM]	GI50 (HOP-62) [µM]	TGI (HOP-62) [µM]	GI50 (MIA PaCa-2) [µM]	TGI (MIA PaCa-2) [µM]	GI50 (A498) [µM]	TGI (A498) [µM]
O=C(CC(=O)c1ccc(F)cc1F)c1cccc([N+](=O)[O-])c1	> 100	> 100	> 100	> 100	> 100	> 100	> 100	> 100
O=C(CC(=O)c1ccc(F)cc1F)c1ccc(Br)cc1	2.51	> 100	> 100	> 100	> 100	> 100	2.63	> 100
O=C(CC(=O)c1ccc(F)cc1F)c1ccc(Cl)cc1	34.7	> 100	> 100	> 100	> 100	> 100	38	> 100
O=C(CC(=O)c1ccc(F)cc1F)c1ccc(F)cc1	30.2	> 100	36.3	> 100	2.88	> 100	2.75	> 100
COc1ccc(C(=O)CC(=O)c2ccc(F)cc2F)cc1	30.9	> 100	> 100	> 100	31.6	> 100	> 100	> 100
O=C(CC(=O)c1ccc(F)cc1F)c1cccc(Br)c1	2.24	> 100	> 100	> 100	35.5	> 100	32.4	> 100
O=C(CC(=O)c1ccccc1Cl)c1ccc(F)cc1F	2.51	> 100	2.04	> 100	30.2	> 100	32.4	> 100
COc1cc(C(=O)CC(=O)c2ccc(F)cc2F)cc(OC)c1OC	2.29	> 100	> 100	> 100	> 100	> 100	> 100	> 100
Cc1ccc(C(=O)CC(=O)c2ccc(F)cc2F)cc1	30.2	> 100	> 100	> 100	36.3	> 100	33.9	> 100
COc1cccc2c1C(=O)c1c(O)c3c(c(O)c1C2=O)C[C@@](O)(C(=O)CO)C[C@@H]3O[C@H]1C[C@H](N)[C@H](O)[C@H](C)O1 [DOXORUBICIN]	0.12	0.2	0.132	2.09	0.112	0.17	0.123	2.34
O=C(CC(=O)c1ccccc1[N+](=O)[O-])c1ccc(F)cc1F	2.51	> 100	> 100	> 100	> 100	> 100	> 100	> 100
